Reference: ChEMBL document CHEMBL1201862, “PubChem BioAssay data set” (2004)
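Dose response: 5 concentrations. Exposure: 48 h. Format: 96-well plates. Endpoint: linear interpolation; highest concentration if not reached. The concentration for 50% growth inhibition is given as GI50.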 Active and inactive are the calls of the source. Cut-off read from the data, not from the text of the source: active = GI50 up to about 1.1 µM and inactive = higher.

How the values were obtained:
Test in all cases: NCI anticancer screen, dose series, 48 h
SN12C = system: SN12C
T47D = system: T47D
RXF 393 = system: RXF 393
SK-MEL-28 = system: SK-MEL-28
OVCAR-4 = system: OVCAR-4
MDA-N = system: MDA-N
DU-145 = system: DU-145
SR = system: SR
HOP-92 = system: HOP-92
M14 = system: M14
HCT-15 = system: HCT-15
OVCAR-8 = system: OVCAR-8
SF-539 = system: SF-539
RPMI-8226 = system: RPMI-8226
COLO 205 = system: COLO 205
786-0 = system: 786-0
MDA-MB-231 = system: MDA-MB-231
OVCAR-3 = system: OVCAR-3
SK-MEL-2 = system: SK-MEL-2
A498 = system: A498
SW-620 = system: SW-620
IGROV-1 = system: IGROV-1
BT-549 = system: BT-549
NCI-H460 = system: NCI-H460
SK-OV-3 = system: SK-OV-3
NCI-H23 = system: NCI-H23
Malme-3M = system: Malme-3M
UO-31 = system: UO-31
SF-268 = system: SF-268
MDA-MB-435 = system: MDA-MB-435
MCF7 = system: MCF7
NCI-H226 = system: NCI-H226
SNB-75 = system: SNB-75
MOLT-4 = system: MOLT-4
LOX IMVI = system: LOX IMVI
NCI/ADR-RES = system: NCI/ADR-RES
U-251 = system: U-251
PC-3 = system: PC-3
HOP-62 = system: HOP-62
Hs-578T = system: Hs-578T
HCT-116 = system: HCT-116
CAKI-1 = system: CAKI-1
UACC-257 = system: UACC-257
TK-10 = system: TK-10
SK-MEL-5 = system: SK-MEL-5
HT-29 = system: HT-29
KM12 = system: KM12
A549 = system: A549
UACC-62 = system: UACC-62
HL-60 = system: HL-60
K562 = system: K562
CCRF-CEM = system: CCRF-CEM
SNB-19 = system: SNB-19
ACHN = system: ACHN
OVCAR-5 = system: OVCAR-5
EKVX = system: EKVX
SF-295 = system: SF-295
HCC 2998 = system: HCC 2998
NCI-H522 = system: NCI-H522

SMILES: N#Cc1c(N)nc2c(c1-c1ccc(Br)cc1)CSc1ccccc1-2
- GI50 (SN12C): 30 µM (inactive)
- GI50 (T47D): 17.4 µM (inactive)
- GI50 (RXF 393): 20.1 µM (inactive)
- GI50 (SK-MEL-28): 68.7 µM (inactive)
- GI50 (OVCAR-4): 24.6 µM (inactive)
- GI50 (MDA-N): 49.4 µM (inactive)
- GI50 (DU-145): 96.6 µM (inactive)
- GI50 (SR): 68.4 µM (inactive)
- GI50 (HOP-92): 9.02 µM (inactive)
- GI50 (M14): 41.7 µM (inactive)
- GI50 (HCT-15): 25.6 µM
- GI50 (OVCAR-8): 55 µM (inactive)
- GI50 (SF-539): 35 µM (inactive)
- GI50 (RPMI-8226): 18.2 µM (inactive)
- GI50 (COLO 205): 13.3 µM (inactive)
- GI50 (786-0): 27.1 µM (inactive)
- GI50 (MDA-MB-231): 13.3 µM (inactive)
- GI50 (OVCAR-3): 30.4 µM (inactive)
- GI50 (SK-MEL-2): 27.2 µM (inactive)
- GI50 (A498): > 100 µM (inactive)
- GI50 (SW-620): 83.4 µM (inactive)
- GI50 (IGROV-1): 21.9 µM (inactive)
- GI50 (BT-549): > 100 µM (inactive)
- GI50 (NCI-H460): 25.8 µM (inactive)
- GI50 (SK-OV-3): 29.6 µM (inactive)
- GI50 (NCI-H23): 29.6 µM (inactive)
- GI50 (Malme-3M): > 100 µM (inactive)
- GI50 (UO-31): 33.8 µM (inactive)
- GI50 (SF-268): 33.1 µM (inactive)
- GI50 (MDA-MB-435): 19.5 µM (inactive)
- GI50 (MCF7): 19.1 µM (inactive)
- GI50 (NCI-H226): 16.1 µM (inactive)
- GI50 (SNB-75): 31.4 µM (inactive)
- GI50 (MOLT-4): 38.7 µM (inactive)
- GI50 (LOX IMVI): 28.6 µM (inactive)
- GI50 (NCI/ADR-RES): 22 µM (inactive)
- GI50 (U-251): 34.4 µM (inactive)
- GI50 (PC-3): 16.7 µM (inactive)
- GI50 (HOP-62): 50.1 µM (inactive)
- GI50 (Hs-578T): 22.8 µM (inactive)
- GI50 (HCT-116): 18.5 µM (inactive)
- GI50 (CAKI-1): 14.9 µM (inactive)
- GI50 (UACC-257): 13.9 µM (inactive)
- GI50 (TK-10): 73.1 µM (inactive)
- GI50 (SK-MEL-5): 58.7 µM (inactive)
- GI50 (HT-29): 34.6 µM (inactive)
- GI50 (KM12): 56 µM (inactive)
- GI50 (A549): 37.2 µM (inactive)
- GI50 (UACC-62): 21.4 µM (inactive)
- GI50 (HL-60): 33.7 µM (inactive)
- GI50 (K562): 32.1 µM (inactive)
- GI50 (CCRF-CEM): 22.4 µM (inactive)
- GI50 (SNB-19): 39.7 µM (inactive)

SMILES: COc1cc(/C=C2\N=C(c3ccccc3)N(c3ccc(C(=O)c4ccccc4)cc3N3C(=O)/C(=C/c4ccc(O)c(OC)c4)N=C3c3ccccc3)C2=O)ccc1O
- GI50 (SN12C): 17.9 µM (inactive)
- GI50 (T47D): 5.18 µM (inactive)
- GI50 (SK-MEL-28): 21.2 µM (inactive)
- GI50 (OVCAR-4): 14.9 µM (inactive)
- GI50 (MDA-N): 3.75 µM (inactive)
- GI50 (DU-145): 17 µM (inactive)
- GI50 (SR): 3.85 µM (inactive)
- GI50 (HOP-92): 22.7 µM (inactive)
- GI50 (M14): 11.3 µM (inactive)
- GI50 (HCT-15): 5.28 µM
- GI50 (ACHN): 17.5 µM (inactive)
- GI50 (OVCAR-8): 12.7 µM (inactive)
- GI50 (SF-539): 5.15 µM (inactive)
- GI50 (RPMI-8226): 8.51 µM (inactive)
- GI50 (COLO 205): 17.9 µM (inactive)
- GI50 (786-0): 18.9 µM (inactive)
- GI50 (MDA-MB-231): 12.9 µM (inactive)
- GI50 (OVCAR-3): 3.52 µM (inactive)
- GI50 (SK-MEL-2): 13.4 µM (inactive)
- GI50 (A498): 6.92 µM (inactive)
- GI50 (SW-620): 7.53 µM (inactive)
- GI50 (IGROV-1): 7.35 µM (inactive)
- GI50 (BT-549): 18.7 µM (inactive)
- GI50 (NCI-H460): 4.66 µM (inactive)
- GI50 (SK-OV-3): 12.1 µM (inactive)
- GI50 (UO-31): 13 µM (inactive)
- GI50 (SF-268): 15.3 µM (inactive)
- GI50 (OVCAR-5): 32.4 µM (inactive)
- GI50 (MDA-MB-435): 2.25 µM (inactive)
- GI50 (MCF7): 5.85 µM (inactive)
- GI50 (EKVX): 25.9 µM (inactive)
- GI50 (SNB-75): 18.8 µM (inactive)
- GI50 (MOLT-4): 3.3 µM (inactive)
- GI50 (SF-295): 6.43 µM (inactive)
- GI50 (LOX IMVI): 10.5 µM (inactive)
- GI50 (NCI/ADR-RES): 6.76 µM (inactive)
- GI50 (U-251): 9.79 µM (inactive)
- GI50 (PC-3): 11.8 µM (inactive)
- GI50 (HOP-62): 14.5 µM (inactive)
- GI50 (Hs-578T): 10.1 µM (inactive)
- GI50 (HCT-116): 5.62 µM (inactive)
- GI50 (CAKI-1): 18.7 µM (inactive)
- GI50 (UACC-257): 16.8 µM (inactive)
- GI50 (HCC 2998): 2.91 µM (inactive)
- GI50 (TK-10): 18.5 µM (inactive)
- GI50 (SK-MEL-5): 7.76 µM (inactive)
- GI50 (HT-29): 20.3 µM (inactive)
- GI50 (KM12): 8.73 µM (inactive)
- GI50 (A549): 11.4 µM (inactive)
- GI50 (UACC-62): 9.62 µM (inactive)
- GI50 (HL-60): 5.09 µM (inactive)
- GI50 (K562): 5.18 µM (inactive)
- GI50 (CCRF-CEM): 5.45 µM (inactive)
- GI50 (SNB-19): 19.5 µM (inactive)

SMILES: Brc1ccc2c3c1[C@H]1O[C@H]1c1cccc(c1-3)[C@@H]1O[C@H]21
- GI50 (SN12C): 17.6 µM (inactive)
- GI50 (T47D): 10.3 µM (inactive)
- GI50 (SK-MEL-28): 15.9 µM (inactive)
- GI50 (OVCAR-4): 15.1 µM (inactive)
- GI50 (MDA-N): 16.9 µM (inactive)
- GI50 (DU-145): 13 µM (inactive)
- GI50 (SR): 20.2 µM (inactive)
- GI50 (HOP-92): 20.5 µM (inactive)
- GI50 (M14): 17.2 µM (inactive)
- GI50 (HCT-15): 21.3 µM
- GI50 (ACHN): 15.3 µM (inactive)
- GI50 (OVCAR-8): 15.6 µM (inactive)
- GI50 (COLO 205): 19.3 µM (inactive)
- GI50 (786-0): 12.4 µM (inactive)
- GI50 (MDA-MB-231): 20.6 µM (inactive)
- GI50 (SK-MEL-2): 18.3 µM (inactive)
- GI50 (A498): 21.2 µM (inactive)
- GI50 (BT-549): 16.5 µM (inactive)
- GI50 (NCI-H522): 10.4 µM (inactive)
- GI50 (SK-OV-3): 19.1 µM (inactive)
- GI50 (NCI-H23): 17.8 µM (inactive)
- GI50 (Malme-3M): 17.8 µM (inactive)
- GI50 (UO-31): 17.3 µM (inactive)
- GI50 (SF-268): 17.7 µM (inactive)
- GI50 (OVCAR-5): 20.2 µM (inactive)
- GI50 (MDA-MB-435): 15 µM (inactive)
- GI50 (MCF7): 17.4 µM (inactive)
- GI50 (EKVX): 18.6 µM (inactive)
- GI50 (NCI-H226): 24.5 µM (inactive)
- GI50 (SNB-75): 13.2 µM (inactive)
- GI50 (MOLT-4): 3.61 µM (inactive)
- GI50 (SF-295): 15.5 µM (inactive)
- GI50 (LOX IMVI): 2.82 µM (inactive)
- GI50 (NCI/ADR-RES): 22.2 µM (inactive)
- GI50 (U-251): 14 µM (inactive)
- GI50 (PC-3): 16.8 µM (inactive)
- GI50 (HOP-62): 14.8 µM (inactive)
- GI50 (Hs-578T): 23.1 µM (inactive)
- GI50 (HCT-116): 13.2 µM (inactive)
- GI50 (CAKI-1): 17.8 µM (inactive)
- GI50 (UACC-257): 14.8 µM (inactive)
- GI50 (TK-10): 17.7 µM (inactive)
- GI50 (SK-MEL-5): 15 µM (inactive)
- GI50 (HT-29): 8.11 µM (inactive)
- GI50 (KM12): 15.2 µM (inactive)
- GI50 (A549): 22 µM (inactive)
- GI50 (UACC-62): 16.8 µM (inactive)
- GI50 (K562): 2.65 µM (inactive)
- GI50 (SNB-19): 18 µM (inactive)
